SMILES strings stand for the structures.

The values below come from US7491794B2, “Macrocyclic compounds as inhibitors of viral replication” (Intermune, Inc., priority 2003, dated 2009).

One experiment deals with T1, NS3-NS4A protease (Hepatitis C virus genotype 1a, UniProt P27958).
T1 construct: Recombinant E. coli or Baculovirus full-length NS3 was diluted to 3.33 μM with assay buffer; made in house; host or cells: E. coli or baculovirus (BV) system
Briefly: NS3-NS4A protease assay (NS3 inhibition assay, RETS1 substrate), Section B. The format is biochemical. Conditions: read-out: NS3-NS4A IC50. The procedure, abridged:
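Full-length NS3 (E. coli or baculovirus) precomplexed with excess NS4A-2 peptide, run at 2 nM (E. coli) or 3 nM (BV) NS3; compounds pre-incubated 10 min at room temperature before RETS1 substrate. Fluorescence (ex 335/em 495 nm) read kinetically 30 min; IC50 from four-parameter fit, converted to Ki via Ki=IC50/(1+[S]/Km).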

Experiment [1] deals with HCV sub-genomic replicon, GS4.3. Nature of the experiment: Quantitation by ELISA of NPTII in the HCV sub-genomic replicon, GS4.3, Section B. The format is cell-based. Conditions: Hepatitis C virus; GS4.3 cells, 72 h incubation; read-out: Replicon EC50. In outline: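 GS4.3 cells (HuH-7 carrying HCV 1377/NS3-3′ replicon) were treated 72 h at 37 °C with inhibitors in 3-fold dilutions, 1% DMSO, no G418. Lysate NPTII was measured by ELISA (TMB, 450 nm). Signal as % of DMSO control; EC50 from 4-parameter fit.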
On the technique in general: In an ELISA, binding on a coated surface is turned into a signal by an enzyme label.

T1 sequence (P27958 1027-1657): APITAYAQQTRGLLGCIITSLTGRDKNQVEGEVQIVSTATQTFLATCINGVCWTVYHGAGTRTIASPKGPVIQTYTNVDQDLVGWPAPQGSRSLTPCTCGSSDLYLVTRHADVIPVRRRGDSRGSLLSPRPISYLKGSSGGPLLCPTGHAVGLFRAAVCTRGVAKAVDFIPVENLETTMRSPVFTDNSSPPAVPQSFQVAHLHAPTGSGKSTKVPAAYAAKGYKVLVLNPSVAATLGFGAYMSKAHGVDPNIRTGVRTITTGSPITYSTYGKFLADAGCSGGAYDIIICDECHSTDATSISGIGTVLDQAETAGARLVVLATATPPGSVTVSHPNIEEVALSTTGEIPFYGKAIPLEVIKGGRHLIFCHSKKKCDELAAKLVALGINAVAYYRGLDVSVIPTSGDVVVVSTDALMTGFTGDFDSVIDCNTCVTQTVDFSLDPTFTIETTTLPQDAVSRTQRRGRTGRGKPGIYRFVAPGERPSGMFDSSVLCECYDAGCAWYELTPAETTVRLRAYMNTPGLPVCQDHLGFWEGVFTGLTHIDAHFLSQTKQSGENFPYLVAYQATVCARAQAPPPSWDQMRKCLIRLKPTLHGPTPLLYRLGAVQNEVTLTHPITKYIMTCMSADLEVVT

As for `O=C(N[C@H]1CCCCC/C=C\[C@@H]2C[C@@]2(C(=O)O)NC(=O)[C@@H]2C[C@@H](OC(=O)N3CCc4ccccc4C3)CN2C1=O)O[C@H]1CCOC1` [AR00304126, (1S,4R,6S,14S,18R)-18-(3,4-Dihydro-1H-isoquinoline-2-carbonyloxy)-2,15-dioxo-14-(tetrahydro-furan-3S-yloxycarbonylamino)-3,16-diaza-tricyclo[14.3.0.0^4,6]nonadec-7-ene-4-carboxylic acid], at NS3-NS4A protease, the IC50 (usually the concentration that inhibits the measured activity by half) was less than 1000 nM. Also, in experiment [1], the EC50 (as a rule, the concentration at which the effect is half-maximal) is less than 10000 nM.

Turning to `O=C(N[C@H]1CCCCC/C=C\[C@@H]2C[C@@]2(C(=O)O)NC(=O)[C@@H]2C[C@@H](OC(=O)N3CCc4ccccc4C3)CN2C1=O)O[C@@H]1CCOC1` [AR00304127, (1S,4R,6S,14S,18R)-18-(3,4-Dihydro-1H-isoquinoline-2-carbonyloxy)-2,15-dioxo-14-(tetrahydro-furan-3R-yloxycarbonylamino)-3,16-diaza-tricyclo[14.3.0.0^4,6]nonadec-7-ene-4-carboxylic acid], the IC50 at NS3-NS4A protease was less than 1000 nM. The EC50 in experiment [1] was less than 10000 nM.

`O=C(N[C@H]1CCCCC/C=C\[C@@H]2C[C@@]2(C(=O)NS(=O)(=O)C2CC2)NC(=O)[C@@H]2C[C@@H](OC(=O)N3CCc4ccccc4C3)CN2C1=O)OCCF` [AR00304161, (1S,4R,6S,14S,18R)-3,4-Dihydro-1H-isoquinoline-2-carboxylic acid 4-cyclopropanesulfonylaminocarbonyl-14-(2-fluoro-ethoxycarbonylamino)-2,15-dioxo-3,16-diaza-tricyclo[14.3.0.0^4,6]nonadec-7-en-18-yl ester]: the IC50 on NS3-NS4A protease was less than 100 nM. The EC50 in experiment [1] was less than 100 nM.

Take `O=C(N[C@H]1CCCCC/C=C\[C@@H]2C[C@@]2(C(=O)NS(=O)(=O)C2CC2)NC(=O)[C@@H]2C[C@@H](OC(=O)N3CCc4ccccc4C3)CN2C1=O)O[C@H]1CCOC1` [AR00304162, (1S,4R,6S,14S,18R)-3,4-Dihydro-1H-isoquinoline-2-carboxylic acid 4-cyclopropanesulfonylaminocarbonyl-2,15-dioxo-14-(tetrahydro-furan-3-yloxycarbonylamino)-3,16-diaza-tricyclo[14.3.0.0^4,6]nonadec-7-en-18-yl ester]: the IC50 on NS3-NS4A protease is less than 100 nM. The EC50 in experiment [1] was less than 100 nM.

Consider `O=C(N[C@H]1CCCCC/C=C\[C@@H]2C[C@@]2(C(=O)NS(=O)(=O)C2CC2)NC(=O)[C@@H]2C[C@@H](OC(=O)N3CCc4ccccc4C3)CN2C1=O)O[C@@H]1CCOC1` [AR00304163, (1S,4R,6S,14S,18R)-3,4-Dihydro-1H-isoquinoline-2-carboxylic acid 4-cyclopropanesulfonylaminocarbonyl-2,15-dioxo-14-(tetrahydro-furan-3R-yloxycarbonylamino)-3,16-diaza-tricyclo[14.3.0.0^4,6]nonadec-7-en-18-yl ester], for which the IC50 at NS3-NS4A protease is less than 100 nM. Moreover, in experiment [1], the EC50 was less than 100 nM.

For `CC(C)(C)OC(=O)N[C@H]1CCCCC/C=C\[C@@H]2C[C@@]2(C(=O)NS(=O)(=O)C2CC2)NC(=O)[C@@H]2C[C@@H](OC(=O)N3CCc4nc(Nc5ccccc5)sc4C3)CN2C1=O` [AR00311814, (1S,4R,6S,14S,18R)-2-Phenylamino-6,7-dihydro-4H-thiazolo[5,4-c]pyridine-5-carboxylic acid 14-tert-butoxycarbonylamino-4-cyclopropanesulfonylaminocarbonyl-2,15-dioxo-3,16-diaza-tricyclo[14.3.0.0^4,6]nonadec-7-en-18-yl ester], the IC50 at NS3-NS4A protease was less than 100 nM. Besides, the EC50 in experiment [1] was less than 10000 nM.

With `CC(C)(C)OC(=O)N[C@H]1CCCCC/C=C\[C@@H]2C[C@@]2(C(=O)NS(=O)(=O)C2CC2)NC(=O)[C@@H]2C[C@@H](OC(=O)N3CCc4ccccc4C3CN3CCCCC3)CN2C1=O` (stereo partly drawn) [AR00311815, (1S,4R,6S,14S,18R)-1-Piperidin-1-ylmethyl-3,4-dihydro-1H-isoquinoline-2-carboxylic acid 14-tert-butoxycarbonylamino-4-cyclopropanesulfonylaminocarbonyl-2,15-dioxo-3,16-diaza-tricyclo[14.3.0.0^4,6]nonadec-7-en-18-yl ester], the IC50 at NS3-NS4A protease is less than 100 nM. Moreover, in experiment [1], the EC50 was less than 1000 nM.

For the compound `CC(C)(C)OC(=O)N[C@H]1CCCCC/C=C\[C@@H]2C[C@@]2(C(=O)NS(=O)(=O)C2CC2)NC(=O)[C@@H]2C[C@@H](OC(=O)N3Cc4ccccc4C4(CCC4)C3)CN2C1=O` [AR00312024, (1S,4R,6S,14S,18R)-4,4-Spirocyclobutyl-3,4-dihydro-1H-isoquinoline-2-carboxylic acid 14-tert-butoxycarbonylamino-4-cyclopropanesulfonylaminocarbonyl-2,15-dioxo-3,16-diaza-tricyclo[14.3.0.0^4,6]nonadec-7-en-18-yl ester], the IC50 at NS3-NS4A protease is less than 100 nM. The EC50 in experiment [1] is less than 100 nM.

Take `CC(C)(C)OC(=O)N[C@H]1CCCCCC=C[C@@H]2C[C@@]2(C(=O)NS(=O)(=O)C2CC2)NC(=O)[C@@H]2C[C@@H](OC(=O)N3Cc4ccccc4C(C)(C)C3)CN2C1=O` [AR00312025, (1S,4R,6S,14S,18R)-4,4-Dimethyl-3,4-dihydro-1H-isoquinoline-2-carboxylic acid 14-tert-butoxycarbonylamino-4-cyclopropanesulfonylaminocarbonyl-2,15-dioxo-3,16-diaza-tricyclo[14.3.0.0^4,6]nonadec-7-en-18-yl ester]: on NS3-NS4A protease, the IC50 was less than 100 nM. In experiment [1], the EC50 is less than 100 nM.

Take `CC1CN(C(=O)O[C@@H]2C[C@H]3C(=O)N[C@]4(C(=O)NS(=O)(=O)C5CC5)C[C@H]4/C=C\CCCCC[C@H](NC(=O)OC(C)(C)C)C(=O)N3C2)Cc2ccccc21` (stereo partly drawn) [AR00312026, (1S,4R,6S,14S,18R)-4-Methyl-3,4-dihydro-1H-isoquinoline-2-carboxylic acid 14-tert-butoxycarbonylamino-4-cyclopropanesulfonylaminocarbonyl-2,15-dioxo-3,16-diaza-tricyclo[14.3.0.0^4,6]nonadec-7-en-18-yl ester]: the IC50 on NS3-NS4A protease is less than 100 nM. For the same compound, in experiment [1], the EC50 is less than 100 nM.

With `O=C(N[C@H]1CCCCC/C=C\[C@@H]2C[C@@]2(C(=O)NS(=O)(=O)C2CC2)NC(=O)[C@@H]2C[C@@H](OC(=O)N3Cc4ccccc4C4(CCC4)C3)CN2C1=O)O[C@@H]1CCOC1` [AR00314635, (1S,4R,6S,14S,18R)-4,4-Spirocyclobutyl-3,4-dihydro-1H-isoquinoline-2-carboxylic acid 4-cyclopropanesulfonylaminocarbonyl-2,15-dioxo-14-(tetrahydro-furan-3-yloxycarbonylamino)-3,16-diaza-tricyclo[14.3.0.0^4,6]nonadec-7-en-18-yl ester], the IC50 at NS3-NS4A protease was less than 100 nM. The EC50 in experiment [1] is less than 100 nM.

Regarding `CC1(C)CN(C(=O)O[C@@H]2C[C@H]3C(=O)N[C@]4(C(=O)NS(=O)(=O)C5CC5)C[C@H]4/C=C\CCCCC[C@H](NC(=O)O[C@H]4CCOC4)C(=O)N3C2)Cc2ccccc21` [AR00314654, (1S,4R,6S,14S,18R)-4,4-Dimethyl-3,4-dihydro-1H-isoquinoline-2-carboxylic acid 4-cyclopropanesulfonylaminocarbonyl-2,15-dioxo-14-(tetrahydro-furan-3S-yloxycarbonylamino)-3,16-diaza-tricyclo[14.3.0.0^4,6]nonadec-7-en-18-yl ester], the IC50 on NS3-NS4A protease was less than 100 nM. For the same compound, the EC50 in experiment [1] is less than 100 nM.

In the case of `CC1CN(C(=O)O[C@@H]2C[C@H]3C(=O)N[C@]4(C(=O)NS(=O)(=O)C5CC5)C[C@H]4/C=C\CCCCC[C@H](NC(=O)NC(C)(C)C)C(=O)N3C2)Cc2ccccc21` (stereo partly drawn) [AR00314656, (1S,4R,6S,14S,18R)-4-Methyl-3,4-dihydro-1H-isoquinoline-2-carboxylic acid 14-(3-tert-butyl-ureido)-4-cyclopropanesulfonylaminocarbonyl-2,15-dioxo-3,16-diaza-tricyclo[14.3.0.0^4,6]nonadec-7-en-18-yl ester], the IC50 on NS3-NS4A protease is less than 100 nM. Further, the EC50 in experiment [1] was less than 100 nM.

For the compound `CN(C)c1cccc2c1CCN(C(=O)O[C@@H]1C[C@H]3C(=O)N[C@]4(C(=O)O)C[C@H]4/C=C\CCCCC[C@H](NC(=O)OC(C)(C)C)C(=O)N3C1)C2` [AR00315997, (1S,4R,6S,14S,18R)-14-tert-Butoxycarbonylamino-18-(5-dimethylamino-3,4-dihydro-1H-isoquinoline-2-carbonyloxy)-2,15-dioxo-3,16-diaza-tricyclo[14.3.0.0^4,6]nonadec-7-ene-4-carboxylic acid], the IC50 on NS3-NS4A protease is less than 1000 nM. Further, in experiment [1], the EC50 is less than 10000 nM.

Consider `CC(C)(C)OC(=O)N[C@H]1CCCCC/C=C\[C@@H]2C[C@@]2(C(=O)O)NC(=O)[C@@H]2C[C@@H](OC(=O)N3Cc4ccc(Cl)cc4C3)CN2C1=O` [AR00315998, (1S,4R,6S,14S,18R)-14-tert-Butoxycarbonylamino-18-(5-chloro-1,3-dihydro-isoindole-2-carbonyloxy)-2,15-dioxo-3,16-diaza-tricyclo[14.3.0.0^4,6]nonadec-7-ene-4-carboxylic acid], for which the IC50 on NS3-NS4A protease is less than 1000 nM. Also, in experiment [1], the EC50 was less than 10000 nM.

In the case of `CC(C)(C)OC(=O)N[C@H]1CCCCC/C=C\[C@@H]2C[C@@]2(C(=O)O)NC(=O)[C@@H]2C[C@@H](OC(=O)N3Cc4cc(Cl)c(Cl)cc4C3)CN2C1=O` [AR00315999, (1S,4R,6S,14S,18R)-14-tert-Butoxycarbonylamino-18-(5,6-dichloro-1,3-dihydro-isoindole-2-carbonyloxy)-2,15-dioxo-3,16-diaza-tricyclo[14.3.0.0^4,6]nonadec-7-ene-4-carboxylic acid], the IC50 at NS3-NS4A protease is less than 1000 nM. Also, the EC50 in experiment [1] was less than 10000 nM.
